Like-named read-outs stand apart in the source and are kept apart here.
Key:
[1] = human, in vivo; for residual effect on Choice Reaction Time / residual effect on Critical Flicker Fusion: po
[2] = human, in vivo
[3] = Driving performance (real driving on the road) and cognitive/psychomotor test battery after evening or middle-of-the-night dosing (Example 3); type: in vivo, human; details: for effect on memory test, body sway, DSST or critical tracking: cognitive and psychomotor test battery before driving test; for effect on driving: driving test at 9 am
From the text: The study participants included healthy, male and female subjects between 21 and 45 years of age, with a valid drivers license for at least 3 years.
Following a cognitive and psychomotor test battery, the driving test started at 9 am and lasted for one hour.

[4] = three-month efficacy study, insomnia; cited from earlier work
[5] = Daytime performance after 5-hour sleep restriction, 4-night placebo-controlled study in healthy adults (Example 4); type: in vivo, human; details: 15 mg
Method: The study included a 2-night single-blind placebo run-in period, a 4-night double-blind treatment period during which sleep was restricted to 5 hours and a 2-night single-blind placebo run-out period. The study included healthy male and female volunteers 18 to <55 years of age.
2-night run-in period: All patients received placebo
2-night run-out period: All patients received placebo
The primary endpoints included observations based on the Multiple Sleep Latency Test (MSLT) and Slow Wave Sleep (SWS) assessment.

[6] = type: in vivo, human
From the text: There was a washout of 4 days between each treatment period.
The study included healthy, male and female subjects between 18 and 45 years of age within 30% of ideal weight. The subjects in Part 1 of the study could be of either gender, but within Part 2 of the study there had to be at least 4 subjects of each gender.

[7] = middle-of-the-night administration (4 am; gaboxadol 15 mg, zolpidem 10 mg)

CCN(CC)CCN1C(=O)CN=C(c2ccccc2F)c2cc(Cl)ccc21 [Flurazepam]
residual effect on Choice Reaction Time [1]: showed significant effect
residual effect on Critical Flicker Fusion [1]: showed significant effect

Oc1noc2c1CCNC2 [gaboxadol, 4,5,6,7-tetrahydroisoxazolo [5,4-c]pyridine-3-ol]
Oral clearance (CL/F) compared with clearance after intravenous administration [2]: of similar magnitude
AUC0-inf, dependence on dose ([2]; iv): increased with increasing dose
Cmax, dependence on dose ([2]; iv): increased with increasing dose
other parameters (CL, t1/2, Vss, fe, and CLR), dependence on dose ([2]; iv): independent of dose
steady-state volume of distribution (Vss) ([2]; iv): moderate
systemic clearance (CL) ([2]; iv): moderate
other parameters (CL/F, tmax, t1/2, fe, and CLR), dependence on dose ([2]; po): independent of dose
AUC0-inf, dependence on dose ([2]; po, 20 mg): increased with increasing dose
Cmax, dependence on dose ([2]; po, 20 mg): increased with increasing dose
residual effects on other measurements (MSLT, DSST, Tracking, Memory tests, Body Sway, Leeds Sleep Evaluation Questionnaire) [1]: did not show any signs of residual effects
residual effect on Choice Reaction Time [1]: did not show residual effect
residual effect on Critical Flicker Fusion [1]: did not show residual effect
effect on memory test, body sway, DSST or critical tracking [3]: no effect
tolerability ([3]; evening and middle-of-the-night dose 15 mg): well tolerated
effect on driving compared with blood alcohol ([3]; evening dose 15 mg): less than the effect observed at a 0.05% blood alcohol concentration
most frequent adverse events ([3]; evening treatment 15 mg): headache and somnolence
effect on driving [3, 7]: clinically relevant impairing effect
most frequent adverse events ([3]; middle-of-the-night treatment 15 mg): dizziness, nausea and somnolence
effects in sleep onset and sleep maintenance [4]: failed to show significant effects
MSLT, average difference to placebo (longer) ([5]; last two Sleep Restriction days, p=0.047, 1 sided): 2.01 min
Karolinska Sleepiness Score (KSS), average difference to placebo (less) ([5]; last two Sleep Restriction days, p=0.058, 1 sided, LDA model): 0.68
SWS, average difference to placebo (longer) ([5]; last two Sleep Restriction nights, p<0.001, 1 sided): 20.53 min
biophysiological measures of stress (heart rate variability, cortisol levels, catecholamine levels, body temperature) vs placebo ([5]; sleep restriction): no differences
neurocognitive battery effect sizes (daytime performance) ([5]; sleep restriction): no strong evidence that gaboxadol improves daytime performance
serious adverse experiences ([6]; both parts of the study): no serious adverse experiences
tolerability ([6]; single dose intravenous 5 and 10 mg): generally well tolerated
tolerability ([6]; single dose oral 2.5 to 20 mg): generally well tolerated

Cc1ccc(-c2nc3ccc(C)cn3c2CC(=O)N(C)C)cc1 [zolpidem]
effect on driving [3, 7]: numerically greater effect

CN1CCN(C(=O)OC2c3nccnc3C(=O)N2c2ccc(Cl)cn2)CC1 (centres unmarked) [zopiclone]
effect on memory test, body sway, DSST or critical tracking [3]: had effect on several of these tests
effect on driving ([3]; evening dose (gaboxadol 15 mg, zopiclone 7.5 mg)): numerically greater effect
